# In patent US6838478B2, “Amino acid derivatives and their use as thrombin inhibitors” (AstraZeneca AB, priority 1996, dated 2005):
# Target: T1, Human thrombin (Homo sapiens, UniProt P00734)
# T1 construct: purchased Sigma Chem Co T 6769
# Test: Test A: determination of thrombin clotting time (TT)
# Type: biochemical
# Settings: concentration of inhibitor that doubles the thrombin clotting time for human plasma
# Procedure: Determination of Thrombin Clotting Time (TT)
# Human thrombin (T 6769, Sigma Chem Co) in buffer solution, pH 7.4, 100 μI, and inhibitor solution, 100 μl, were incubated for one min. Pooled normal citrated human plasma, 100 μl, was then added and the clotting time measured in an automatic device (KC 10, Amelung).
# The clotting time in seconds was plotted against the inhibitor concentration, and the IC50TT was determined by interpolation.
# IC50TT is the concentration of inhibitor in the test that doubles the thrombin clotting time for human plasma.
row,Compound,IC50
1,"COc1cccc(C(CO)C(=O)N2CCC2C(=O)NCc2ccc(C(N)=NO)cc2)c1 (single isomer, unassigned) [Example 9, (R)- or (S)-3-Methoxyphenyl-CH(CH2OH)—C(O)-Aze-Pab-OH]",> 1000 nM
2,"COc1cccc(C(CO)C(=O)N2CCCC2C(=O)NCc2ccc(C(N)=NC(=O)OCc3ccccc3)cc2)c1 (single isomer, unassigned) [Example 10, (S)- or (R)-3-Methoxyphenyl-CH(CH2OH)CO-Pro-Pab(Z)]",> 1000 nM
3,"COc1cccc(C(CO)C(=O)N2CCCC2C(=O)NCc2ccc(C(N)=NO)cc2)c1 (single isomer, unassigned) [Example 13, (S)- or (R)-3-Methoxyphenyl-CH(CH2OH)—C(O)-Pro-Pab-OH]",> 1000 nM
4,"CCC(=O)ON=C(N)c1ccc(CNC(=O)C2CCCN2C(=O)C(CO)c2cccc(OC)c2)cc1 (single isomer, unassigned) [Example 14, (S)- or (R)-3-Methoxyphenyl-CH(CH2OH)—C(O)-Pro-Pab-OC(O)Et]",> 1000 nM
5,"NC(=NO)c1ccc(CNC(=O)C2CCCN2C(=O)C(CO)c2ccccc2)cc1 [Example 8, (R,S)-Ph-CH(CH2OH)—C(O)-Pro-Pab-OH]",> 1000 nM
6,"COCC(C)(C(=O)N1CCCC1C(=O)NCc1ccc(C(N)=NC(=O)OCc2ccccc2)cc1)c1ccccc1 [Example 40, (R,S)-Ph-C(Me)(CH2OMe)-C(O)-Pro-Pab(Z)]",> 1000 nM
